Test results from the supplement of paper PMC4862054.

Key:
Experiment in all cases: drug sensitivity score (DSS), CellTox Green (DSS (AUC-based score)); higher = stronger drug effect (viability inhibition or cytotoxicity); extreme values may be limits of the assay
Conditions in all cases: incubation time: 72 h
HCC1937 = test system: HCC1937
How it was run: (§1)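 Breast cancer cell lines, seeded as 20 µl suspension, were incubated 72 h with compound in 384-well plates at 5 concentrations in 10-fold steps over a 10,000-fold range set for each compound. Fluorescence from CellTox Green was read at 485/520 nm before CellTiter-Glo luminescence, which was read after 10 min at room temperature. Every plate was normalised to 0.1 % DMSO and a positive kill control, and the drug sensitivity score was taken from the area under the fitted dose-response curve.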

MDA-MB-231 = test system: MDA-MB-231
How it was run: as §1

HDQ-P1 = test system: HDQ-P1
How it was run: as §1

MFM-223 = test system: MFM-223
How it was run: as §1

MDA-MB-436 = test system: MDA-MB-436
How it was run: as §1

Hs578T = test system: Hs578T
How it was run: as §1

CAL-148 = test system: CAL-148
How it was run: as §1

BT-474 = test system: BT-474
How it was run: as §1

CAL-85-1 = test system: CAL-85-1
How it was run: as §1

CAL-120 = test system: CAL-120
How it was run: as §1

DU-4475 = test system: DU-4475
How it was run: as §1

MCF-10A = test system: MCF-10A
How it was run: as §1

BT-549 = test system: BT-549
How it was run: as §1

MDA-MB-468 = test system: MDA-MB-468
How it was run: as §1

HCC1599 = test system: HCC1599
How it was run: as §1

| SMILES | drug sensitivity score (HCC1937) | drug sensitivity score (MDA-MB-231) | drug sensitivity score (HDQ-P1) | drug sensitivity score (MFM-223) | drug sensitivity score (MDA-MB-436) | drug sensitivity score (Hs578T) | drug sensitivity score (CAL-148) | drug sensitivity score (BT-474) | drug sensitivity score (CAL-85-1) | drug sensitivity score (CAL-120) | drug sensitivity score (DU-4475) | drug sensitivity score (MCF-10A) | drug sensitivity score (BT-549) | drug sensitivity score (MDA-MB-468) | drug sensitivity score (HCC1599) |
| --- | --- | --- | --- | --- | --- | --- | --- | --- | --- | --- | --- | --- | --- | --- | --- |
| CC(=O)OC[C@H]1O[C@@H]([S-])[C@H](OC(C)=O)[C@@H](OC(C)=O)[C@@H]1OC(C)=O.CCP(CC)CC.[Au+] [Auranofin] | 4.79 | 3.16 | 6.27 | 1.22 | 0 | 0 | 0.881 | 3.42 | 4.88 | 0.776 | 0 | 0 | 4.41 | 9.05 | 0 |
| CO[C@@H](C(=O)N1Cc2[nH]nc(NC(=O)c3ccc(N4CCN(C)CC4)cc3)c2C1)c1ccccc1 [Danusertib] | 1.64 | 0 | 0.964 | 0 | 3.88 | 15.2 | 0 | 0 | 0 | 3.17 | 0 | 0.832 | 1.26 | 13.7 | 0 |
| Cc1nc(Nc2ncc(C(=O)Nc3c(C)cccc3Cl)s2)cc(N2CCN(CCO)CC2)n1 [Dasatinib] | 0 | 4.62 | 0 | 0 | 0 | 6.23 | 0 | 0 | 6.5 | 0 | 0 | 7.15 | 2.37 | 0 | 0 |
| Cc1c(CN2CCN(C(=O)[C@H](C)O)CC2)sc2c(N3CCOCC3)nc(-c3cnc(N)nc3)nc12 [GDC-0980] | 0 | 0 | 1.58 | 6 | 0 | 0 | 6.07 | 4.57 | 2.26 | 0 | 0 | 0 | 0 | 0 | 0 |
| Cc1cccc(-c2nn3c(c2-c2ccnc4ccc(C(N)=O)cc24)CCC3)n1 [Galunisertib] | 0 | 0 | 0 | 0 | 0.892 | 0 | 0 | 0 | 0 | 0 | 0 | 0 | 0 | 0 | 0 |
| Nc1cccc2c1CN(C1CCC(=O)NC1=O)C2=O (stereo not given) [Lenalidomide] | 0 | 0 | 0 | 0 | 0 | 0 | 1.27 | 0 | 0 | 0 | 0 | 0 | 0 | 0 | 0 |
| C[C@]12O[C@H](C[C@]1(O)CO)n1c3ccccc3c3c4c(c5c6ccccc6n2c5c31)CNC4=O [Lestaurtinib] | 0 | 0.0124 | 0 | 0 | 8.14 | 4.21 | 0 | 0.706 | 5.21 | 0 | 0 | 0 | 2.26 | 0 | 4.55 |
| O=C1c2c(O)ccc(O)c2C(=O)c2c(NCCNCCO)ccc(NCCNCCO)c21 [Mitoxantrone] | 0 | 0 | 0 | 0 | 0 | 0 | 3.55 | 0 | 0 | 0 | 0 | 0 | 0 | 0 | 0 |
| Nc1ccccc1NC(=O)c1ccc(CNc2nccc(-c3cccnc3)n2)cc1 [Mocetinostat] | 0.396 | 8.8 | 14.5 | 0 | 10.1 | 7.44 | 2.32 | 2.44 | 7.11 | 3.91 | 0 | 0 | 1.91 | 10.9 | 1.87 |
| COc1nc(N)nc2c1ncn2[C@@H]1O[C@H](CO)[C@@H](O)[C@@H]1O [Nelarabine] | 0 | 0 | 0 | 0 | 0 | 0 | 0 | 0 | 0 | 0 | 0 | 0 | 0.855 | 0 | 0 |
| Cc1ccc(Nc2nccc(N(C)c3ccc4c(C)n(C)nc4c3)n2)cc1S(N)(=O)=O [Pazopanib] | 0 | 0 | 0 | 0 | 0 | 0 | 0 | 0 | 0.186 | 0 | 0 | 0 | 0 | 0 | 0 |
| CS(=O)(=O)N1CCN(Cc2cc3nc(-c4cccc5[nH]ncc45)nc(N4CCOCC4)c3s2)CC1 [Pictilisib] | 0 | 0 | 0 | 4.88 | 0 | 0 | 9.53 | 1.54 | 3.76 | 0 | 0 | 7.08 | 0 | 0 | 0 |
| O=C(NC[C@H](O)CO)c1ccncc1Nc1ccc(I)cc1F [Pimasertib] | 0 | 12.2 | 0 | 0 | 0 | 0 | 0 | 2.1 | 6.45 | 2.8 | 9.13 | 0 | 0 | 0 | 0 |
| O=C(CCBr)N1CCN(C(=O)CCBr)CC1 [Pipobroman] | 0 | 0 | 0 | 0 | 0 | 0 | 0 | 0 | 0 | 0 | 0 | 0 | 0 | 0 | 0 |
| c1cc(CN2CCCNCCNCCCNCC2)ccc1CN1CCCNCCNCCCNCC1 [Plerixafor] | 0 | 0 | 0 | 0 | 0 | 0 | 0 | 0 | 0 | 0 | 0 | 0 | 0 | 4.79 | 0 |
| Cn1cc(CNCC2CCN(c3ncc(C(=O)NO)cn3)CC2)c2ccccc21 [Quisinostat] | 0 | 13.6 | 1.56 | 4.71 | 0 | 13.2 | 14.8 | 11 | 20.1 | 13.6 | 2.71 | 0 | 0 | 18.9 | 1.48 |
| CNC(=O)c1cc(Oc2ccc(NC(=O)Nc3ccc(Cl)c(C(F)(F)F)c3)cc2)ccn1 [Sorafenib] | 0 | 0 | 0 | 0 | 0 | 0 | 0 | 0 | 0 | 0 | 0 | 0 | 0 | 0 | 0 |
| CCN(CC)CCNC(=O)c1c(C)[nH]c(/C=C2\C(=O)Nc3ccc(F)cc32)c1C [Sunitinib] | 0 | 0 | 0 | 0 | 0 | 2.45 | 0 | 0 | 0 | 0 | 0 | 0 | 0 | 0 | 0 |
| CC[C@@]1(O)C(=O)OCc2c1cc1n(c2=O)Cc2cc3c(CN(C)C)c(O)ccc3nc2-1 [Topotecan] | 3.78 | 10.2 | 0.486 | 2.66 | 8.04 | 0 | 24.6 | 0.158 | 7.11 | 3.76 | 0 | 1.98 | 0 | 8.87 | 2.71 |
